Patent US12589087B2, “Enantiomer selective action on neurotransmission” (The Board of Trustees of the Leland Stanford Junior …, priority 2021, dated 2026)

Assays:
human glutaminase GLS1 = biological target: T1, human glutaminase GLS1 (Homo sapiens, UniProt O94925); experiment: Catalysis of 2MeGln hydrolysis by GLS1 glutaminase; type: biochemical; settings: 10 mM substrate, 5 ng/mL enzyme, phosphate pH 7.4
T1 construct: purchased Sigma SRP0516
T1 sequence (O94925 55-669): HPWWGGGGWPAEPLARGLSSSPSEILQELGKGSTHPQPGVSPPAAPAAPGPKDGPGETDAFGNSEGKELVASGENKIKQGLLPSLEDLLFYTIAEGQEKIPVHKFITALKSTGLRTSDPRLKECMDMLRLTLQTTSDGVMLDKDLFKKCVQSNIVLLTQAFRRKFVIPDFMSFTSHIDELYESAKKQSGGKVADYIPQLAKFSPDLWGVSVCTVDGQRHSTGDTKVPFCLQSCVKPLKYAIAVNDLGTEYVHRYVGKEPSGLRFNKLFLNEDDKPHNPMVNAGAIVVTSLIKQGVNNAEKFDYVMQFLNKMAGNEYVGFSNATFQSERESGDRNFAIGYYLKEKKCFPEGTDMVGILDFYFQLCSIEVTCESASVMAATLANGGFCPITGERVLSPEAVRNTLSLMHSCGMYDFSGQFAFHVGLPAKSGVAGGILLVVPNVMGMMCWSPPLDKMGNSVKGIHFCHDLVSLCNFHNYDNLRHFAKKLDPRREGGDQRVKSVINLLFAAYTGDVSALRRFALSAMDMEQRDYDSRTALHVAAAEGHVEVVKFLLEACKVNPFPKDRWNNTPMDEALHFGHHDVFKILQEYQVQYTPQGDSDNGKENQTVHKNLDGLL
Method: The procedure was adapted from an existing protocol. To a reaction mixture in a 1.5 mL microcentrifuge tube containing 10 mM rac-2MeGln or L-Gln-^13C2 in 100 mM phosphate pH 7.4 buffer made in 20% atom ^18O water, recombinant GLS1 (final concentration: 5 ng/mL) was added. The tubes were incubated in a preheated thermomixer at 37° C. and periodically shaken at 600 rpm (30 s on, 30 s off). 5 μL aliquots were collected in triplicate every 5 min and immediately diluted with 195 μL of cold 60% ACN containing 10 μM Glu-d5 and Gln-d5 as internal standards in a 96 well plate. After collecting all samples, the plate was shaken at 1000 rpm for 5 min at room temperature, and then stored at −80° C. Before analysis the plate was thawed and 10 μL aliquots of the extracted reaction mixtures were diluted with 190 μL of 90% acetonitrile.
The quantification of the newly formed 2MeGlu in the presence of the preexisting trace amounts was performed in the following way. Peak area ratio of Glu-^13C2 to Glu-^13C2^18O was calculated in all samples containing Glu-^13C2. The mean ratio value was then applied to calculate the hypothetical peak area of the newly formed 2MeGlu based on the directly measured 2MeGlu-^18O peak area. The ratio of the newly formed 2MeGlu peak area and the total 2MeGlu peak area was applied to calculate the concentration of the newly formed 2MeGlu from the total 2MeGlu concentration determined directly using the calibration curve.

[1] = system: murine primary cerebral cortical neuron cultures; experiment: Neuronal transport and metabolism of 2MeGln; type: cell-based, mouse; settings: 1 mM substrate, 2 h, 37° C., neurons
Method: The procedure was adapted from an existing protocol. Wild-type (WT) C57BL/6J mating pairs were housed according to Stanford IACUC protocol. On day P0, pups were euthanized and brains dissected in cold HBSS (without Ca^2+ or Mg^2+). The forebrain was microdissected to isolate the cortex and hippocampus. These brain regions were minced in cold HBSS before trypsinization at 37° C. for 9 minutes, followed by trituration, through 2 glass polished Pasteur pipettes. The resulting cell suspension was passed through a 100 μm filter to isolate single cells which were sedimented at 250 g for 5 minutes. The cell pellet was then resuspended in complete Neural Basal Media (Neural Basal Media+Glutamax+B-27 Plus Supplement+Pen/Strep)+10% FBS, counted using a hemocytometer and plated at 1×10^6 cells per mL into a 24 well plate (1 mL per well) coated with poly-D-lysine and laminin. Cultures were grown at 37° C./5% CO2 in a tissue culture incubator. Media was exchanged 50% on day 1 in vitro (1 DIV) with fresh complete Neural Basal Media without FBS and thereafter every other day with the same media. On 3 DIV the media was spiked with 2 μM AraC to limit glial growth. On 10 DIV the media was completely replaced with 500 μL Neural Basal Media containing B-27 Plus Supplement+Pen/Strep without added Glutamax but instead containing 1 mM substrate at 37° C. for 2 h. […]

- apparent reaction rate of GLS1 hydrolysis (human glutaminase GLS1): 65 µM/min
- intracellular [1,2-13C]Gln, lower than 2MeGln in corresponding samples [1]: 2 fold
SMILES: NC(=O)CC[C@H](N)C(=O)O [Gln, L-glutamine, reference compound]
